Data as given in patent US11858956B2, “6-aza-nucleoside prodrugs as antiviral agents for treating virus infections” (Southern Research Institute, priority 2020, dated 2024).

Tests used:
Type in all cases: cell-based
CHIKV = assay: Antiviral activity against CHIKV in NHDF cells; conditions: Chikungunya virus; for EC90: read-out: CHIKV (NHDF cells) EC90; for log reduction at 10 µM: read-out: CHIKV (NHDF cells) VTR (virus titer reduction)
DENV = assay: Antiviral activity against DENV in HEK293 cells; conditions: Dengue virus; for EC90: HEK293, read-out: DENV (HEK293 cells) EC90; for log reduction at 10 µM: HEK293, read-out: DENV (HEK293 cells) VTR (virus titer reduction)
ZIKA = assay: Antiviral activity against ZIKA in HEK 293 cells; conditions: Zika virus; for EC90: HEK293, read-out: ZIKA (HEK 293 cells) EC90; for log reduction at 10 µM: HEK293, read-out: ZIKA (HEK 293 cells) VTR (virus titer reduction)
H1N1 strain = assay: Antiviral activity against Influenza H1N1 strain in MDCK cells; conditions: Influenza A virus; for log reduction at 20 µM: at 20 μM concentration, 4-6 hours pre-incubation, read-out: H1N1 strain (MDCK cells) VTR (virus titer reduction); for EC90: 4-6 hours pre-incubation with compound
Description: (§1) The antiviral activity against Influenza viruses (H1N1 and H3N2 strains) evaluated in MDCK cells (4-6 hours pre-incubation with compound) shown in Table 5 below. VTR=Virus titer reduction in log at 20 μM concentration. NT: not tested, ND: not determined.

H3N2 strain = assay: Antiviral activity against Influenza H3N2 strain in MDCK cells; conditions: Influenza A virus; for log reduction at 20 µM: at 20 μM concentration, 4-6 hours pre-incubation, read-out: H3N2 strain (MDCK cells) VTR (virus titer reduction); for EC90: 4-6 hours pre-incubation with compound
Description: as §1

[1] = Cytotoxicity (CC50) in HEK293 cells; conditions: human, WNV
Description: (§2) As used herein, “CC50” is intended to refer to the concentration of a substance (e.g., a compound or a drug) that is required for 50% reduction of cell viability. In one aspect, an CC50 can refer to the concentration of a substance that is required for 50% reduction (i.e., cytotoxicity) in vivo, as further defined elsewhere herein.
The antiviral activity against Alpharviruses evaluated in HEK293 cells (4 hours pre-incubation with compound before infected with virus) is shown in Table 2 below. VTR=Virus titer reduction in log at 10 μM concentration. NT: not tested, ND: not determined

VEEV = assay: microbe, parasite or virus in culture; conditions: Venezuelan equine encephalitis virus, NHDF; for EC90: read-out: VEEV (NHDF cells) EC90; for log reduction at 10 µM: read-out: VEEV (NHDF cells) VTR (virus titer reduction)
[2] = Cytotoxicity (CC50) in MDCK cells; conditions: dog, H1N1
Description: as §2, §1

[3] = Cytotoxicity (CC50) in NHDF cells; conditions: human, CHIKV
Description: as §2
VTR=Virus titer reduction in log at 10 μM concentration. NT: not tested, ND: not determined.

WNV = assay: Antiviral activity against WNV in HEK293 cells; conditions: West Nile virus; for EC90: HEK293, read-out: WNV (HEK293 cells) EC90; for log reduction at 10 µM: HEK293, read-out: WNV (HEK293 cells) VTR (virus titer reduction)

## CC(C)COC(=O)[C@H](C)NP(=O)(OC[C@H]1O[C@@H](n2ncc(=O)[nH]c2=O)C(O)[C@H]1O)Oc1ccccc1 (stereo in doubt) [Compound 4, 2-isobutyl ((((2R,3S,4R,5R)-5-(3,5-dioxo-4,5-dihydro-1,2,4-triazin-2(3H)-yl)-3,4-dihydroxytetrahydrofuran-2-yl)methoxy)(phenoxy)phosphoryl)-L-alaninate]
CHIKV
  EC90: > 10 µM
  log reduction at 10 µM: 0
DENV
  EC90: 2 µM
  log reduction at 10 µM: 2.2
ZIKA
  EC90: 4.8 µM
  log reduction at 10 µM: 2
H1N1 strain
  log reduction at 20 µM: 3.4
H3N2 strain
  log reduction at 20 µM: 1.3
[1]
  CC50: 40 µM
VEEV
  EC90: 8.9 µM
  log reduction at 10 µM: 1.18
[2]
  CC50: > 100 µM
[3]
  CC50: > 40 µM
WNV
  EC90: 1.2 µM
  log reduction at 10 µM: 3.1

## CC(C)COC(=O)[C@H](C)N[P@](=O)(OC[C@H]1O[C@@H](n2ncc(=O)[nH]c2=O)[C@H](O)[C@@H]1O)Oc1cccc2ccccc12 [Compound 8, isobutyl ((((2R,3S,4R,5R)-5-(3,5-dioxo-4,5-dihydro-1,2,4-triazin-2(3H)-yl)-3,4-dihydroxytetrahydrofuran-2-yl)-methoxy)(naphthalen-1-yloxy)phosphoryl)-L-alaninate]
CHIKV
  EC90: > 10 µM
  log reduction at 10 µM: 0
DENV
  EC90: 3.9 µM
  log reduction at 10 µM: 2.3
ZIKA
  EC90: 6 µM
  log reduction at 10 µM: 1.6
H1N1 strain
  log reduction at 20 µM: 3.4
H3N2 strain
  log reduction at 20 µM: 1.6
[1]
  CC50: > 40 µM
VEEV
  EC90: > 10 µM
  log reduction at 10 µM: 0.21
[2]
  CC50: > 100 µM
[3]
  CC50: > 40 µM
WNV
  EC90: 2.9 µM
  log reduction at 10 µM: 2.8

## CC(C)[C@@H](N)C(=O)OC[C@H]1O[C@@H](n2ncc(=O)[nH]c2=O)C(O)[C@H]1O (stereo partly drawn) [Compound 9, ((2r,3s,4r,5r)-5-(3,5-dioxo-4,5-dihydro-1,2,4-triazin-2(3H)-yl)-3,4-dihydroxytetrahydrofuran-2-yl) methyl-D-valinate]
CHIKV
  EC90: 1 µM
  log reduction at 10 µM: 1.34
DENV
  EC90: 1.3 µM
  log reduction at 10 µM: 3.2
ZIKA
  EC90: 1.4 µM
  log reduction at 10 µM: 2
H1N1 strain
  EC90: 0.77 µM
  log reduction at 20 µM: 3.4
H3N2 strain
  EC90: 2.41 µM
  log reduction at 20 µM: 3.4
[1]
  CC50: 29 µM
VEEV
  EC90: 3.04 µM
  log reduction at 10 µM: 3.1
[2]
  CC50: 19.6 µM
[3]
  CC50: > 40 µM
WNV
  EC90: 0.22 µM
  log reduction at 10 µM: 3.5

## CC[C@H](C)[C@H](N)C(=O)OC[C@H]1O[C@@H](n2ncc(=O)[nH]c2=O)[C@H](O)[C@@H]1O [Compound 10, ((2r,3s,4r,5r)-5-(3,5-dioxo-4,5-dihydro-1,2,4-triazin-2(3H)-yl)-3,4-dihydroxytetrahydrofuran-2-yl)methyl L-isoleucinate]
CHIKV
  EC90: > 10 µM
  log reduction at 10 µM: 0.39
DENV
  EC90: 0.3 µM
  log reduction at 10 µM: 3.4
ZIKA
  EC90: 0.5 µM
  log reduction at 10 µM: 3.1
H1N1 strain
  EC90: 3.68 µM
  log reduction at 20 µM: 3.4
H3N2 strain
  EC90: 3.33 µM
  log reduction at 20 µM: 3.4
[1]
  CC50: 29 µM
VEEV
  EC90: 0.62 µM
  log reduction at 10 µM: 3.51
[2]
  CC50: 19.3 µM
[3]
  CC50: > 40 µM
WNV
  EC90: 0.2 µM
  log reduction at 10 µM: 3.9

## CCCCCCCCCCCCCCCCCC(=O)OC[C@H]1O[C@@H](n2ncc(=O)[nH]c2=O)[C@H](O)[C@@H]1O [Compound 15, ((2r,3s,4r,5r)-5-(3,5-dioxo-4,5-dihydro-1,2,4-triazin-2(3H)-yl)-3,4-dihydroxytetrahydrofuran-2-yl)methyl stearate]
CHIKV
  EC90: 0.31 µM
  log reduction at 10 µM: 2.6
DENV
  EC90: 0.16 µM
  log reduction at 10 µM: 3.6
ZIKA
  EC90: 0.4 µM
  log reduction at 10 µM: 3
H1N1 strain
  EC90: 0.75 µM
  log reduction at 20 µM: 3.3
H3N2 strain
  EC90: 3.29 µM
  log reduction at 20 µM: 3
[1]
  CC50: 0.97 µM
VEEV
  EC90: > 10 µM
  log reduction at 10 µM: 0
[2]
  CC50: > 20 µM
[3]
  CC50: 7.96 µM
WNV
  EC90: 0.33 µM
  log reduction at 10 µM: 4.5

## CCCC(CCC)C(=O)Nc1cnn([C@@H]2O[C@H](CO)[C@@H](O)[C@H]2O)c(=O)n1 [Compound 18, N-(2-((2r,3r,4s,5r)-3,4-dihydroxy-5-(hydroxymethyl)-tetrahydrofuran-2-yl)-3-oxo-2,3-dihydro-1,2,4-triazin-5-yl)-2-propylpentanamide]
CHIKV
  EC90: 3.2 µM
  log reduction at 10 µM: 1.42
DENV
  EC90: 0.2 µM
  log reduction at 10 µM: 4
ZIKA
  EC90: 0.1 µM
  log reduction at 10 µM: 2.7
H1N1 strain
  EC90: 0.66 µM
  log reduction at 20 µM: 3.3
H3N2 strain
  EC90: 2.78 µM
  log reduction at 20 µM: 3.4
[1]
  CC50: 30.8 µM
VEEV
  EC90: > 10 µM
  log reduction at 10 µM: 0.13
[2]
  CC50: 19.6 µM
[3]
  CC50: > 40 µM
WNV
  EC90: 0.4 µM
  log reduction at 10 µM: 2.8
